One assay concerns the target T1, phosphorylated c-MET (Homo sapiens, UniProt P08581).
T1 construct: endogenous in cells; host or cells: MKN45
Kind of assay: c-MET cell mechanistic assay (phosphorylated c-MET in MKN45 cells). Format: cell-based. The following applies: MKN45 cell line, four hours incubation, phosphorylated c-MET levels, at least duplicate experiments; read-out: Met mech IC50. The method in brief:
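MKN45 cells were treated 4 h at 37 °C with a 6-point dilution series (typically 10 μM to 3 nM; final 0.5% DMSO). Phospho-c-MET (pY1230/1234/1235) in lysates was measured by capture ELISA with HRP read-out at 450 nm. IC50 came from a four-parameter fit of percent of DMSO control.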

The test system of another assay is MKN45 cells. Kind of assay: MKN45 cell proliferation assay (CellTiter-Glo). Format: cell-based. The following applies: MKN45 cell line, 3 days incubation, at least duplicate experiments, read-out: Prolif. IC50. The method in brief:
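MKN45 cells (5000/well, RPMI + 10% FCS) plated overnight, then exposed to 8-point dilution series, typically 10 μM to 0.6 nM, in 0.1% DMSO for 3 days at 37 °C. CellTiter-Glo luminescence as % of DMSO control; IC50 from four-parameter fit, at least duplicate experiments.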
(Cellular ATP, detected with luciferase, serves as a proxy for viable cell number.)

In a further assay the target is T2, c-Met (Homo sapiens, UniProt P08581).
T2 construct: purchased Invitrogen
T2 sequence (P08581 25-1390): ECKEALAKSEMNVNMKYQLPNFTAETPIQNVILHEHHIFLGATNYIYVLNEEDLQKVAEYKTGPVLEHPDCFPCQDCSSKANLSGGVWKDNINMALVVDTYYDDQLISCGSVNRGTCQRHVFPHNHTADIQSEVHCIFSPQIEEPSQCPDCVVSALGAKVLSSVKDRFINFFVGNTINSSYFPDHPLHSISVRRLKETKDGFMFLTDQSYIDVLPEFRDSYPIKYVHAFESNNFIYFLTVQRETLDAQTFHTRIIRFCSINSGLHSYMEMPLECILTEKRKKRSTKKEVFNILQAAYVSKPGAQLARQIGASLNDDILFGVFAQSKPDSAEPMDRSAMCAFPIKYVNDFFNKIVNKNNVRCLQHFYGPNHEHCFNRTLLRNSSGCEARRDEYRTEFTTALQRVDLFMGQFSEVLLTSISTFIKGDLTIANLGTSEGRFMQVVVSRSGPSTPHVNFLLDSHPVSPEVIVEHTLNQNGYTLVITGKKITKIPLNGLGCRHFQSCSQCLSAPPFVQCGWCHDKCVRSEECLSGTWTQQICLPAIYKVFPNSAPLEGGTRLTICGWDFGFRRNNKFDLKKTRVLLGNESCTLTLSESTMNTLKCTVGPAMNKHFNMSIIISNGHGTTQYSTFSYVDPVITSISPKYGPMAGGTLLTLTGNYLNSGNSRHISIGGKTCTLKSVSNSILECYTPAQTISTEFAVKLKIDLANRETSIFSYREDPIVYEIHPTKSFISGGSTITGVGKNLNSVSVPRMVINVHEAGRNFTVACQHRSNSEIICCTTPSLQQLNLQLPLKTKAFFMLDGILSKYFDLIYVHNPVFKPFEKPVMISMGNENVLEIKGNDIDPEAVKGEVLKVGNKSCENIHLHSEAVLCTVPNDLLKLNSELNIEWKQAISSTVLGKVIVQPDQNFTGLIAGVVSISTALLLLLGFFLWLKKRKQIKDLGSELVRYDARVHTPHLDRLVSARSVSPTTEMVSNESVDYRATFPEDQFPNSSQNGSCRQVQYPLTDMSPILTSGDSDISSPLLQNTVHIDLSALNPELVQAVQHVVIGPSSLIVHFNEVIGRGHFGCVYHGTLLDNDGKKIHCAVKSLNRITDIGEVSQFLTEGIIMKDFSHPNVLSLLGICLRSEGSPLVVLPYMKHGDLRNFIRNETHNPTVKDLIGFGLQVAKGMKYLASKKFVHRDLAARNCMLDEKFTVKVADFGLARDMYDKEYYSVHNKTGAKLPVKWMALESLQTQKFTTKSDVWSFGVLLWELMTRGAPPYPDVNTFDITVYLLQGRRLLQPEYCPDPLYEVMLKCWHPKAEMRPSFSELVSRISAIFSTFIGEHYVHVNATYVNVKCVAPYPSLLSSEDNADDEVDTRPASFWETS
Put plainly: c-Met kinase assay (Invitrogen Z′-LYTE kinase assay platform). The class given is biochemical. The conditions noted are these: Z′-LYTE kinase assay at Invitrogen, ATP concentration of 100 μM. As to the method:
(§1) The activities of exemplary compounds of the present invention against Ron and c-Met determined at Invitrogen using the Z′-LYTE™ kinase assay platform are shown in Table 1: A, IC50≦0.1 μM; B, 0.1 μM<IC50≦1 μM; C, 1 μM<IC50≦10 μM; D, IC50>10 μM. The assays were conducted at an ATP concentration of 100 μM. The Example # of Table 1 corresponds to the compound example number as illustrated in the Examples section.

The target of another assay is T3, Ron (Homo sapiens, UniProt Q04912).
T3 construct: purchased Invitrogen
T3 sequence (Q04912 25-1400): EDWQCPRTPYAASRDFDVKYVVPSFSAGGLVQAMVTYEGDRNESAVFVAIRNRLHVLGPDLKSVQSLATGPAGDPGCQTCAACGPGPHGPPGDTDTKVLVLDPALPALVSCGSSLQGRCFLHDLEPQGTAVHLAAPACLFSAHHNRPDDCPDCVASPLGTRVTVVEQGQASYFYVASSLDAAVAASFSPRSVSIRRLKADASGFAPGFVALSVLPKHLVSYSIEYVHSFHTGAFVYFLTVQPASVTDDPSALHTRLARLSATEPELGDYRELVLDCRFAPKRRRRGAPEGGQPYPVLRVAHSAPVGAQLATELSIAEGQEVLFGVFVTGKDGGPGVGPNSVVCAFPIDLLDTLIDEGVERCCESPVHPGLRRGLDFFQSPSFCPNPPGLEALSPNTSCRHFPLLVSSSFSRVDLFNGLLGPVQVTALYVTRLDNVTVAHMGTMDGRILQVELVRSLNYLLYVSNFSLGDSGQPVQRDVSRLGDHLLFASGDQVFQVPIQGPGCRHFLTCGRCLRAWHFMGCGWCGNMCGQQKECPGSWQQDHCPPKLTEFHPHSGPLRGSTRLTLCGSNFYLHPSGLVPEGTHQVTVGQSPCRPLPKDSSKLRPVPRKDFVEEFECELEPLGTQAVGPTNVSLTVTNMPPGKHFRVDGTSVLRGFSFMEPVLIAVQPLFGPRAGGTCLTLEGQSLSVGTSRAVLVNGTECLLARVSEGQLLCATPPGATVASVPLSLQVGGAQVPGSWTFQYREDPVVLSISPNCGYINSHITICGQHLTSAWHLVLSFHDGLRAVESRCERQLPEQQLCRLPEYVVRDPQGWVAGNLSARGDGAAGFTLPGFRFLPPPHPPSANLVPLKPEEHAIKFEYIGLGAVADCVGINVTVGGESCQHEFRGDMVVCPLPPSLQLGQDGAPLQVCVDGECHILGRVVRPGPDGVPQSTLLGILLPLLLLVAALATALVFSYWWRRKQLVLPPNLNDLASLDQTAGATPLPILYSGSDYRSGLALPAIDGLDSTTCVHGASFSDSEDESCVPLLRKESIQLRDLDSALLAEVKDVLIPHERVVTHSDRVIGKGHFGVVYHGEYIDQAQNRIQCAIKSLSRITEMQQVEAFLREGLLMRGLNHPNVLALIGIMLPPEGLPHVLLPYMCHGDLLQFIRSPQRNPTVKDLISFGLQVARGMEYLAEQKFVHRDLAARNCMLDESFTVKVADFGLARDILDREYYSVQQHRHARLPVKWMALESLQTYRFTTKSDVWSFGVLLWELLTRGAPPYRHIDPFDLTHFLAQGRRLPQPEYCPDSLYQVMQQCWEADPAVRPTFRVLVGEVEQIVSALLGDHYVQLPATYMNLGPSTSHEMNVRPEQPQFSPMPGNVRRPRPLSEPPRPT
Put plainly: Ron kinase assay (Invitrogen Z′-LYTE kinase assay platform). The class given is biochemical. The following applies: Z′-LYTE kinase assay at Invitrogen, ATP concentration of 100 μM. As to the method: as §1

The term IC50 denotes the concentration that inhibits the measured activity by half.

Where two headings read alike, the source gives them in different places.

T1 sequence (P08581 25-1390): as the sequence (P08581 25-1390) above

Regarding `CC(c1c(Cl)cccc1Cl)c1c[nH]c2ncc(-c3cnn(C4CCNCC4)c3)cc12` (centres unmarked) [Example 1, 3-[1-(2,6-Dichlorophenyl)ethyl]-5-(1-piperidin-4-yl-1H-pyrazol-4-yl)-1H-pyrrolo[2,3-b]pyridine], the IC50 at phosphorylated c-MET was at most 100 nM; in the assay on MKN45 cells (Homo sapiens, MKN-45, 72 h), 100 to 1000 nM; at c-Met it was at most 100 nM; at Ron, at most 100 nM.

On to `CC(c1c(Cl)ccc(F)c1Cl)c1c[nH]c2ncc(-c3cnn(C4CCNCC4)c3)cc12` (centres unmarked) [Example 2, 3-[1-(2,6-Dichloro-3-fluorophenyl)ethyl]-5-(1-piperidin-4-yl-1H-pyrazol-4-yl)-1H-pyrrolo[2,3-b]pyridine], for which the IC50 was at most 100 nM on phosphorylated c-MET; at most 100 nM in the assay on MKN45 cells (Homo sapiens, MKN-45, 72 h); at most 100 nM at c-Met; at most 100 nM at Ron.

As to `C[C@H](c1c(Cl)ccc(F)c1Cl)c1c[nH]c2ncc(-c3cnn(CCO)c3)cc12` [Example 70, 2-(4-{3-[(S)-1-(2,6-Dichloro-3-fluorophenyl)ethyl]-1H-pyrrolo[2,3-b]-pyridin-5-yl}pyrazol-1-yl)ethanol], the IC50 on phosphorylated c-MET is at most 100 nM; with MKN45 cells (Homo sapiens, MKN-45, 72 h) it was at most 100 nM; against c-Met it was at most 100 nM; against Ron, 1000 to 10000 nM.

On to `CC(c1c(Cl)ccc(F)c1Cl)c1c[nH]c2ncc(-c3cnn(C4CCN(C=O)CC4)c3)cc12` (centres unmarked) [Example 71, 4-(4-{3-[1-(2,6-Dichloro-3-fluorophenyl)ethyl]-1H-pyrrolo[2,3-b]pyridin-5-yl}-pyrazol-1-yl)-piperidine-1-carbaldehyde], for which the half-inhibitory concentration (IC50) is at most 100 nM in the assay with MKN45 cells, at most 100 nM against c-Met and 100 to 1000 nM at Ron.

In the case of `C[C@H](c1c(Cl)ccc(F)c1Cl)c1c[nH]c2ncc(-c3cnn(CC(=O)N4CCN(C)CC4)c3)cc12` [Example 79, 2-(4-{3-[(S)-1-(2,6-Dichloro-3-fluorophenyl)ethyl]-1H-pyrrolo[2,3-b]-pyridin-5-yl}-pyrazol-1-yl)-1-(4-methylpiperazin-1-yl)ethanone], the IC50 at phosphorylated c-MET is at most 100 nM; with MKN45 cells (Homo sapiens, MKN-45, 72 h), at most 100 nM.

On to `C[C@H](c1c(Cl)ccc(F)c1Cl)c1c[nH]c2ncc(-c3cnn(C4CCNCC4)c3)cc12` [Example 80, 3-[(S)-1-(2,6-Dichloro-3-fluorophenyl)ethyl]-5-(1-piperidin-4-yl-1H-pyrazol-4-yl)-1H-pyrrolo[2,3-b]pyridine], for which the IC50 is at most 100 nM at phosphorylated c-MET and at most 100 nM in the assay on MKN45 cells (Homo sapiens, MKN-45, 72 h).

Turning to `C[C@@H](c1c(Cl)ccc(F)c1Cl)c1c[nH]c2ncc(-c3cnn(C4CCNCC4)c3)cc12` [Example 81, 3-[(R)-1-(2,6-Dichloro-3-fluorophenyl)ethyl]-5-(1-piperidin-4-yl-1H-pyrazol-4-yl)-1H-pyrrolo[2,3-b]pyridine], the IC50 was 100 to 1000 nM at phosphorylated c-MET and 100 to 1000 nM with MKN45 cells (Homo sapiens, MKN-45, 72 h).

Turning to `C[C@H](c1c(Cl)ccc(F)c1Cl)c1c[nH]c2ncc(-c3cnn(C(C)(C)CO)c3)cc12` [Example 85, 2-(4-{3-[(S)-1-(2,6-Dichloro-3-fluorophenyl)ethyl]-1H-pyrrolo[2,3-b]-pyridin-5-yl}-pyrazol-1-yl)-2-methylpropan-1-ol], the IC50 at phosphorylated c-MET is at most 100 nM; in the assay on MKN45 cells (Homo sapiens, MKN-45, 72 h), 100 to 1000 nM.

Turning to `CC(c1c(Cl)ccc(F)c1Cl)c1c[nH]c2ncc(-c3cccnc3)cc12` (centres unmarked) [Example 88, 3-[1-(2,6-Dichloro-3-fluorophenyl)ethyl]-5-pyridin-3-yl-1H-pyrrolo[2,3-b]pyridine], the IC50 lay in the range of 100 to 1000 nM at phosphorylated c-MET and 100 to 1000 nM with MKN45 cells (Homo sapiens, MKN-45, 72 h).

On to `CC(c1c(Cl)ccc(F)c1Cl)c1c[nH]c2ncc(-c3cnn(C4CCC(=O)CC4)c3)cc12` (centres unmarked) [Example 89, 4-(4-{3-[1-(2,6-Dichloro-3-fluorophenyl)ethyl]-1H-pyrrolo[2,3-b]pyridin-5-yl}-pyrazol-1-yl)cyclohexanone], for which the IC50 is at most 100 nM on phosphorylated c-MET and at most 100 nM in the assay with MKN45 cells (Homo sapiens, MKN-45, 72 h).

For the compound `C[C@H](c1c(Cl)ccc(F)c1Cl)c1c[nH]c2ncc(-c3cnn(C[C@H](O)CO)c3)cc12` [Example 90, (S)-3-(4-{3-[(S)-1-(2,6-Dichloro-3-fluorophenyl)ethyl]-1H-pyrrolo[2,3-b]pyridin-5-yl}-pyrazol-1-yl)-propane-1,2-diol], the half-inhibitory concentration (IC50) at phosphorylated c-MET was at most 100 nM; in the assay on MKN45 cells (Homo sapiens, MKN-45, 72 h) it was at most 100 nM.

The record behind these values is patent US8592448B2 (OSI Pharmaceuticals, LLC, priority 2008, dated 2013).
